How the values were obtained:
[1] = system: PDE4; details: estimated; Bender and Beavo; cited from earlier work
[2] = system: p65; experiment: p65 phosphorylation by Phos-tag PAGE in BEAS-2B cells; format: cell-based, human; details: roflumilast as co-treatment with NTHi
Experimental: Phos-tag PAGE. Recombinant p65 proteins or nuclear extracts recovered without EDTA/EGTA were separated by SDS-PAGE, with 6% gels containing 50 μM Mn^2+-Phos-tag Acrylamide and transferred to PVDF membrane according to the manufacture's instructions (Kinoshita et al., Mol. Cell. Proteomics 5(4):749-757, 2006.

[3] = system: p65 and PKA-Cβ; experiment: Co-immunoprecipitation of p65 and PKA-Cβ in BEAS-2B cells; format: cell-based, human; details: BEAS-2B cells transfected with p65 and PKA-Cβ; co-treatment of roflumilast with NTHi
Experimental: Immunoprecipitation. Cell extracts were incubated with 1 μg of primary antibodies overnight at 4° C., followed by a 2 h incubation with protein G PLUS-agarose beads (Santa Cruz Biotechnology). Immunoprecipitates were then suspended in a sample buffer, separated on 8% SDS-PAGE gels, transferred to PVDF membrane, and detected by immunoblot analysis as described above.

[4] = system: PDE4A and 4C; experiment: Expression of other PDE4 family members (PDE4A, 4C) in BEAS-2B cells; format: cell-based, human; details: NTHi or roflumilast
From the text: (§1) Cell culture. All media described below were supplemented with 10% fetal bovine serum (Sigma-Aldrich). Human bronchial epithelial BEAS-2B cells were maintained in RPMI medium (Life Technologies) (ATCC® CRL-9609™). Human primary bronchial epithelial NHBE (Lonza) cells were maintained in bronchial epithelial growth media (BEGM) supplemented with BEGM SingleQuots (Jono et al., J. Biol. Chem. 277(47):45547-45557, 2002). BEAS-2B cells stably expressing human PDE4B2 (PDE4B2-stable cells) were obtained by plasmid transfection following Geneticin selection (300 μg/mL). Cells were cultured in a humidified atmosphere of 5% CO2 at 37° C.

[5] = system: PDE4B; experiment: PDE4B mRNA expression in lung tissues of NTHi-inoculated mice; details: mice, Rof 5 mg/kg i.p. 2 hours before intratracheal NTHi 5×10^7 cfu per lung, after 5 hours
[6] = system: PDE4B; experiment: PDE4B mRNA expression (Q-PCR) in primary NHBE cells stimulated with NTHi; format: cell-based, human; details: Rof 0.1 μM 1 hour, then 1.5-hour NTHi
Experimental: (§2) Bacterial strains and culture condition. Clinical isolates of NTHi strain 12 were used in this study (Ishinaga et al., EMBO J., 26(4):1150-1162, 2007). Bacteria were grown on chocolate agar plates at 37° C. in an atmosphere of 5% CO2 overnight and subsequently inoculated in brain heart infusion (BHI) broth supplemented with 3.5 μg/mL NAD and hemoglobin (BD Biosciences). After overnight incubation, the bacteria were subcultured into fresh broth and the log phase bacteria, monitored by measurement of optical density (OD) value, were washed and suspended in DMEM for in vitro cell experiments and in isotonic saline for in vivo animal experiments. For all in vitro experiments except the dose dependent experiment, NTHi was treated at multiplicity of infection (MOI) of 50.
Cell culture. All media described below were supplemented with 10% fetal bovine serum (Sigma-Aldrich). Human bronchial epithelial BEAS-2B cells were maintained in RPMI medium (Life Technologies) (ATCC® CRL-9609™). Human primary bronchial epithelial NHBE (Lonza) cells were maintained in bronchial epithelial growth media (BEGM) supplemented with BEGM SingleQuots (Jono et al., J. Biol. Chem. 277(47):45547-45557, 2002). BEAS-2B cells stably expressing human PDE4B2 (PDE4B2-stable cells) were obtained by plasmid transfection following Geneticin selection (300 μg/mL). […]

[7] = system: PDE4B2; experiment: PDE4B2 protein expression (Western blot) in mouse lung tissue extracts; format: in vivo; details: NTHi and roflumilast
Experimental: (§3) Western blot. Whole-cell extracts and mouse lung tissue extracts were recovered with lysis buffer (50 mM Tris-HCl at pH7.4, 1% NP40, 0.25% deoxycholate, 150 mM NaCl, 1 mM EDTA, 1 mM NaF, supplemented with 1 mM Na3VO4 and PIC). For PDE4B protein, cell extracts were recovered with Buffer A as described above. Cell or tissue extracts were separated on 8% SDS-PAGE gels and transferred to polyvinylidene difluoride (PVDF) membrane (GE Healthcare Life Sciences). The membrane was blocked with a solution of TBS containing 0.1% Tween 20 (TBS-T) and 5% non-fat dry milk. The membrane was then incubated in a 1:1,000-1:2,000 dilution of a primary antibody in 5% BSA-TBS-T. After washing (×3) with TBS-T, the membrane was incubated with a 1:5,000 dilution of the corresponding secondary antibody in 2.5% non-fat dry milk-TBS-T. Respective proteins were visualized using Amersham ECL Prime Regent (GE Healthcare Life Sciences).
Mice and animal experiments. […]
Immunofluorescent staining. Formalin-fixed paraffin-embedded mouse lung tissue was sectioned (4 μm) and PDE4B protein was detected using a rabbit anti-PDE4B and an FITC-conjugated goat anti-rabbit IgG (Santa Cruz Biotechnology). Stained sections were then imaged, and images were recorded under light- and fluorescence-microscopy systems (AxioVert 40 CFL, AxioCam MRC, and AxioVision LE Image system, Carl Zeiss).

[8] = system: PDE4B2; experiment: PDE4B2 expression (RT-PCR) in BEAS-2B cells; format: cell-based, human
Experimental: as §2, §1
Plasmids, transfections and luciferase assay. The expression plasmids, constitutively active forms of IKKα (IKKα-CA, S176E/S180E) and IKKβ (IKKβ-CA, S177E/S181E) and a dominant negative form of IκBα (IκBα-DN, S32A/S36A) were previously described (Shuto et al., Proc. Natl. Acad. Sci. USA, 98(15):8774-8779, 2001; Ishinaga et al., supra). Luciferase reporter construct of NF-κB (pGL4.32) was purchased from Promega. Human PDE4B2, p65 (RelA) and PKA-Cβ1/2 cDNA sequences were generated and inserted into the BamHI and HindIII sites of the pcDNA3.1/mycHis(−) vector. Mutant p65 and PDE4B2-D392A were generated by using PRIMESTAR® Max (Takara). Empty vector was used as a control and was also added where necessary to ensure an equivalent amount of input DNA. All transient transfections were carried out in triplicate using TRANSIT-LT1® reagent (Minis) following the manufacturer's instruction.

[9] = system: PDE4B2; experiment: PDE4B2 protein expression (Western blot) in airway epithelial cell extracts; format: cell-based, human; details: NTHi and roflumilast
Experimental: as §3

[10] = system: NF-κB promoter; experiment: IKKβ-CA-induced NF-κB promoter activity (luciferase) in PDE4B2-transfected cells; format: cell-based, human; details: up to 10 μM
Experimental: Plasmids, transfections and luciferase assay. […] Empty vector was used as a control and was also added where necessary to ensure an equivalent amount of input DNA. All transient transfections were carried out in triplicate using TRANSIT-LT1® reagent (Minis) following the manufacturer's instruction.

[11] = system: CCL5, CCL7, CXCL10, CXCL11, IL-8, GM-CSF and TNF-α; experiment: NTHi-induced expression of pro-inflammatory mediators in BEAS-2B cells; format: cell-based, human
Experimental: as §2, with “Clinical isolates of NTHi strain 12 were used in this study (Ishinaga et al., EMBO J., 26(4):1150-1162, 2007).” left out
Cell culture. All media described below were supplemented with 10% fetal bovine serum (Sigma-Aldrich). […] BEAS-2B cells stably expressing human PDE4B2 (PDE4B2-stable cells) were obtained by plasmid transfection following Geneticin selection (300 μg/mL). Cells were cultured in a humidified atmosphere of 5% CO2 at 37° C.

O=C(Nc1c(Cl)cncc1Cl)c1ccc(OC(F)F)c(OCC2CC2)c1 [roflumilast]
IC50 [1]: < 1 nM
phosphorylation of p65 (induction) [2]: induced phosphorylation of p65
interaction of p65 and PKA-Cβ [3]: enhanced
expression of PDE4A and 4C [4]: not up-regulated
PDE4B mRNA expression in lung tissues [5]: synergistically enhanced
PDE4B mRNA expression in lung tissues ([5]; listed as Rof): significantly elevated
PDE4B mRNA expression [6]: increasing PDE4B mRNA significantly
~70-kDa PDE4B isoform (PDE4B2 protein) [7]: induced an increase
expression of PDE4B2 ([8]; BEAS-2B, Rof 0.1 μM with NTHi or TNF-α (10 ng/mL), semi-quantitative RT-PCR): synergistically up-regulated
PDE4B2 expression ([8]; cells transfected with p65 mutants S468A, S529A and S536A but not S276A, roflumilast and NTHi): synergistically enhanced
PDE4B2 expression ([8]; in IKKβ-CA- but not IKKα-CA-transfected BEAS-2B cells): synergistically enhanced
PDE4B2 expression ([8]; p65-transfected cells): synergistically enhanced
~70-kDa PDE4B isoform (PDE4B2 protein) [9]: induced an increase
IKKβ-CA-induced NF-κB promoter activity ([10]; cells overexpressing PDE4B2-WT or PDE4B2-D392A): unable to fully inhibit
IKKβ-CA-induced NF-κB promoter activity ([10]; cells transfected with PDE4B2-D392A): unable to fully inhibit
NTHi-induced induction of CCL5, CCL7 and IL-8 ([11]; BEAS-2B cells): modestly suppressed
NTHi-induced induction of TNF-α and GM-CSF ([11]; BEAS-2B cells): markedly inhibited
NTHi-induced CXCL10 and CXCL11 induction ([11]; BEAS-2B cells, even at higher concentration): almost no inhibitory effect
efficacy in suppressing Group A-chemokines ([11]; in PDE4B-depleted but not in PDE4D-depleted cells): more efficacious
